Reference: BigSolDB 2.1

CC(C)[C@H](N)C(=O)O
solubility (mole fraction)
Conditions	283.15 K	288.15 K	293.15 K	298.15 K	303.15 K	308.15 K	313.15 K	318.15 K	323.15 K	328.15 K
in 1,4-dioxane	–	6.7e-05	8.7e-05	0.000121	0.000169	0.000223	0.000281	0.000346	0.00041	0.000486
in acetone	3.1e-05	4.1e-05	5.6e-05	7.5e-05	0.0001	0.000132	0.000171	0.000216	0.000256	–
in acetonitrile	2.4e-05	3.3e-05	4.3e-05	5.6e-05	6.8e-05	8.2e-05	9.9e-05	0.000116	0.000136	–
in ethanol	0.000254	0.00026	0.000272	0.000286	0.000303	0.00032	0.000338	0.000357	0.00038	–
in ethyl acetate	3.1e-05	3.7e-05	4.6e-05	5.7e-05	7.1e-05	8.4e-05	0.0001	0.000119	0.000136	–
in isobutanol	5e-05	6.1e-05	7.8e-05	9.9e-05	0.000123	0.000151	0.000185	0.000218	0.000258	–
in isopropanol	1.6e-05	1.8e-05	2.5e-05	3.2e-05	4.2e-05	5.6e-05	7e-05	9e-05	0.00011	–
in methanol	0.000585	0.000601	0.000624	0.000652	0.000684	0.000717	0.000754	0.000792	0.000834	–
in methyl acetate	3e-05	3.2e-05	3.4e-05	3.6e-05	4.2e-05	5.1e-05	6.7e-05	8.8e-05	0.000115	–
in n-butanol	2.4e-05	3.1e-05	4.7e-05	6.9e-05	9.1e-05	0.000115	0.000139	0.00017	0.000203	–
in n-propanol	1.5e-05	1.9e-05	2.3e-05	3e-05	3.7e-05	4.6e-05	5.5e-05	6.4e-05	7.7e-05	–
in water	0.00915	0.00921	0.00937	0.00954	0.00976	0.00998	0.0102	0.0105	0.0108	–
